Counter-ions that a name gives are not always drawn.
Legend:
MK2 [1] = target: T1, MK2 (Rattus norvegicus, UniProt Q80ZF4); assay: ELISA MK2 cell-based activity assay (phospho-HSP-27), RMVEC cells; settings: compound 20 μM, 30 minutes, 37° C.; for Average Response HSP27: phospho-HSP27 ELISA
T1 construct: endogenous in cells; host or cells: rat microvascular endothelial cells (RMVEC)
Protocol: (§1) The MK2 activator candidates, identified using the artificial intelligence (AI)-assisted docking approach, were tested in activity assays for lead selection against the MK2 target. MK2 activation was assessed using (a) a cell-based assay using rat microvascular endothelial cells (RMVEC) and (b) human cancer skin fibroblast cells (Malme-3M). In both assays, an Enzyme-linked ImmunoSorbent Assay (ELISA) technique was used to measure (HSP-27) phosphorylation (DYC2314-2, R&D Systems). Both cell lines were grown to confluency in a 96-well tissue culture plate and treated at 37° C. for 30 minutes with the test compounds at concentrations of 20 μM. The cells were subsequently lysed with a lysis solution containing 0.5% Triton X-100 and anti-proteolysis agents. The resulting lysates were then loaded onto ELISA plates coated with anti-rat phospho-HSP27. After incubation and washing, the plates were treated with an horseradish peroxidase (HRP)-conjugated anti-phospho-HSP27 secondary antibody and then measured for chemiluminescence. Higher activity compounds, acting on MK2, induced higher levels of HSP-27 phosphorylation, as measured by the ELISA.

MK2 [2] = target: T2, MK2 (Homo sapiens, UniProt P49137); assay: ELISA MK2 cell-based activity assay (phospho-HSP-27), Malme-3M cells; settings: for Ratio to Control / Pho-HSP27: Malme-3M cells, compound 20 μM, 30 minutes, 37° C.; for Pho-HSP27: phospho-HSP27 ELISA; for response in phospho-HSP27 ELISA, overall ranking: overall statement on compounds tested at 20 μM (Malme-3M and RMVEC cells)
T2 construct: endogenous in cells; host or cells: Malme-3M
T2 sequence (P49137 whole entry): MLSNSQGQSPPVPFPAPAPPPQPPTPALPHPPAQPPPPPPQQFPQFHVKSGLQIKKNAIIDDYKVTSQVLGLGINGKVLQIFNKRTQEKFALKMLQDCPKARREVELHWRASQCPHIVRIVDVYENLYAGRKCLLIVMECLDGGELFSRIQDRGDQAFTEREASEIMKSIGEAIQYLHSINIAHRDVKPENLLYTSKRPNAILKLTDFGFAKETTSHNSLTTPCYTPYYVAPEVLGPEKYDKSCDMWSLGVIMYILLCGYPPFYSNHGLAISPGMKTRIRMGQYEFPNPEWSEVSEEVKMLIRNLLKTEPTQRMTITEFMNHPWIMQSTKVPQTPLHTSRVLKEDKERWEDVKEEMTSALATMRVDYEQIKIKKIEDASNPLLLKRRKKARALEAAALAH
Protocol: as §1

T1 sequence (Q80ZF4 1-386): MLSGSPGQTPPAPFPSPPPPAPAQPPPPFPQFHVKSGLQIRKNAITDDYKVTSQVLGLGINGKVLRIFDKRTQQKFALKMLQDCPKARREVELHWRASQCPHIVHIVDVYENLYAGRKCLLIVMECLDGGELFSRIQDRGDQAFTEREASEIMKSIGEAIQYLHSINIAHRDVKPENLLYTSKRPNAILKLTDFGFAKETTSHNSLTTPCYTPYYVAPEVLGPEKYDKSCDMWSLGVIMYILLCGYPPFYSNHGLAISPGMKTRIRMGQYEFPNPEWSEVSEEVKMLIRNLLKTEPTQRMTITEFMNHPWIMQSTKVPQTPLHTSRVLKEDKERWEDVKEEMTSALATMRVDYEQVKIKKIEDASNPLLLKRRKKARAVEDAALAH

Molecule | Ratio Compound/control (MK2 [1]) | Average Response HSP27 (MK2 [1]) [pg/mL] | Ratio to Control (MK2 [2]) | Pho-HSP27 (MK2 [2]) [pg/mL] | response in phospho-HSP27 ELISA, overall ranking (MK2 [2])
Cc1cc(N2CCN([C@@H]3CN[C@H](C(=O)N4CCSC4)C3)CC2)n(-c2ccccc2)n1 [Teneligliptin hydrobromide] | 0.8 | 4.0 | – | – | –
c1cc(OCCN2CCCCC2)cc(-c2n[nH]c3ccc(-c4nc[nH]n4)cc23)c1 [CC-401 Hydrochloride] | 0.9 | 6.3 | – | – | –
FC(F)(F)c1ccc(/C=C/c2nc(COc3ccc(CCCCn4ccnn4)cc3)co2)cc1 [Compound 37, Mubritinib] | 1.6 | 34.0 | 1.6 | 36.8 | –
Cc1ccccc1-c1cc(N2CCN(C)CC2)ncc1N(C)C(=O)C(C)(C)c1cc(C(F)(F)F)cc(C(F)(F)F)c1 [Compound 9, Netupitant] | 0.7 | 2.7 | – | – | –
Cc1cn(-c2cc(NC(=O)c3ccc(C)c(Nc4nccc(-c5cccnc5)n4)c3)cc(C(F)(F)F)c2)cn1 [Compound 51, Nilotinib] | 1.1 | 18.2 | 0.6 | 12.7 | –
Cc1nc2n(c(=O)c1CCN1CCC(c3noc4cc(F)ccc34)CC1)CCCC2O (stereo not shown) [Compound 20, Paliperidone] | 1.1 | 4.3 | – | – | –
C=CCn1c(=O)c2cnc(Nc3ccc(N4CCN(C)CC4)cc3)nc2n1-c1cccc(C(C)(C)O)n1 [Compound 36, Azd-1775] | 0.9 | 21.4 | 0.7 | 15.7 | –
Cn1cc(-c2ccc(F)c(C(F)(F)F)c2)nc1C1CCN(c2ncnc3[nH]ncc23)CC1 [Compound 30, Ly-2584702] | 0.3 | 0.0 | – | – | –
CCn1cc(-c2ccnc3[nH]c(-c4cccc(CN(C)C)c4)cc23)c(-c2ccc(NC(=O)N(C)C)cc2)n1 [Compound 28, Gsk-1070916] | 0.2 | 0.9 | – | – | –
Cc1nc(Nc2[nH]nc3c2CN(C(=O)N[C@H](CN(C)C)c2ccccc2)C3(C)C)c2sccc2n1 [Compound 39, Pf-03758309] | 1.0 | 4.8 | – | – | –
Nc1ccccc1NC(=O)c1ccc(CNc2nccc(-c3cccnc3)n2)cc1 [Compound 38, Mocetinostat] | 1.0 | 17.8 | 0.9 | 21.2 | –
CC(=O)N1CCN(CCOc2ccc(C3CCN(C4=Nn5c(nnc5C(F)(F)F)CC4)CC3)cc2)CC1 [Compound 44, Azd3514] | 0.9 | 5.9 | – | – | –
COc1cc2ncnc(Oc3cccc(NC(=O)Nc4cc(C(C)(C)C(F)(F)F)on4)c3)c2cc1OC [Compound 27, Cep-32496] | 0.9 | 6.2 | – | – | –
NC(=O)[C@@H](CCC(F)(F)F)N(Cc1ccc(-c2ncon2)cc1F)S(=O)(=O)c1ccc(Cl)cc1 [Compound 115, Avagacestat] | 0.8 | 5.7 | – | – | –
O=C1[C@H]2CCCC[C@H]2C(=O)N1CCCCN1CCN(c2nsc3ccccc23)CC1 [Compound 23, Perospirone] | – | – | 32.0 | 720.7 | most robust response
O=C1Cc2cc(CCN3CCN(c4nsc5ccccc45)CC3)c(Cl)cc2N1 [Compound 24, Ziprasidone] | – | – | 1.6 | 35.4 | –
CC(C)c1cc(CNc2nc(Nc3cc(C4CC4)[nH]n3)cc(N3CCN(C)CC3)n2)on1 [Compound 43, Xl-228] | 0.4 | 5.7 | – | – | –
CCS(=O)(=O)c1cccc(-c2cc(C(=O)NC3CCN(C)CC3)c(C)c3[nH]c4ncc(C)cc4c23)c1 [Compound 46, Tak-901] | 0.2 | -0.2 | – | – | –

The remaining lines, values ahead:

Ratio Compound/control (MK2 [1]) | Average Response HSP27 (MK2 [1]) [pg/mL] | Ratio to Control (MK2 [2]) | Pho-HSP27 (MK2 [2]) [pg/mL] | response in phospho-HSP27 ELISA, overall ranking (MK2 [2]) | Molecule
1.1 | 18.4 | – | – | – | Delavirdine (mesylate)
0.1 | 1.2 | – | – | – | OCC(O)CN1CCN(c2ccccc2)CC1 (stereo not shown) [Dropropizine]
2.7 | 11.7 | – | – | – | MK2-AP (batch#2): presumably the positively charged MK2-activating peptide YARAAARQARAHPRNPARRTPGTRRGAPAA (SEQ ID NO: 7) (MK2 peptide fragment)
1.0 | 21.7 | 0.9 | 20.8 | – | Cc1cn(-c2cc(NC(=O)c3ccc(C)c(Nc4nccc(-c5cnccn5)n4)c3)cc(C(F)(F)F)c2)cn1 [Compound 52, Radotinib]
0.8 | 18.6 | 1.1 | 24.1 | – | O=C(O)c1ccc2nc(-c3cc(Cl)cc(Cl)c3)oc2c1 [Compound 95, Tafamidis]
2.3 | 47.1 | 27.6 | 621.3 | most robust response | OC[C@@H](O)CN1CCN(c2ccccc2)CC1 [Levodropropizine]
1.3 | 9.0 | – | – | – | CCN1CCN(Cc2ccc(NC(=O)Nc3ccc(Oc4cc(NC)ncn4)cc3)cc2C(F)(F)F)CC1 [Compound 55, Ast-487]
2.2 | 43.2 | – | – | – | O=C1[C@H]2CCCC[C@H]2C(=O)N1CCCCN1CCN(c2nsc3ccccc23)CC1 [Perospirone hydrochloride]
1.0 | 6.6 | – | – | – | CCc1cc(/C(C)=N/OCc2ccc(C3CCCCC3)c(C(F)(F)F)c2)ccc1CN1CC(C(=O)O)C1 [Compound 76, Siponimod]
1.3 | 27.6 | 1.5 | 33.2 | – | O=C(O)CCn1c2c(c3ccccc31)C[C@H](NS(=O)(=O)c1ccc(F)cc1)CC2 [Compound 93, Ramatroban]
1.5 | 32.3 | – | – | – | O=C1Cc2cc(CCN3CCN(c4nsc5ccccc45)CC3)c(Cl)cc2N1 [Ziprasidone HCl]
1.1 | 10.4 | – | – | – | Cl.Cl.OCCN1CCN(CCC=C2c3ccccc3Sc3ccc(C(F)(F)F)cc32)CC1 (mixture of isomers) [Flupenthixol dihydrochloride]
– | – | 0.8 | 17.3 | – | CC(C)Nc1cccnc1N1CCN(C(=O)c2cc3cc(NS(C)(=O)=O)ccc3[nH]2)CC1 [Compound 108, Delavirdine]
1.3 | 12.1 | – | – | – | Cc1c(NC(=O)OC[C@@H]2COCCN2)cn2ncnc(Nc3ccc4c(cnn4Cc4cccc(F)c4)c3)c12 [Compound 49, Ac-480]
1.3 | 5.2 | – | – | – | Cc1oncc1C(=O)Nc1ccc(C(F)(F)F)cc1 [Compound 72, Leflunomide]
1.2 | 26.5 | 1.2 | 26.2 | – | COc1ccc(-c2cc(C(F)F)nn2-c2ccc(S(N)(=O)=O)cc2)cc1F [Compound 113, Deracoxib]
0.3 | 4.6 | – | – | – | Cc1cc(Nc2cc(N3CCN(C)CC3)nc(/C=C/c3ccccc3)n2)n[nH]1 [Compound 56, Enmd-2076]
0.6 | 15.2 | 0.7 | 15.0 | – | O=C(Nc1ccc(-c2ccnc(Nc3ccc(N4CCOCC4)cc3)n2)cc1)C1CCCN1 (stereo not shown) [Compound 78, Xl-019]
0.9 | 8.5 | – | – | – | Cn1c(Nc2ccc(C(F)(F)F)cc2)nc2cc(Oc3ccnc(-c4ncc(C(F)(F)F)[nH]4)c3)ccc21 [Compound 47, Chir-265]
0.9 | 4.2 | – | – | – | COCCOc1ccc(N2CCN(CCn3ncc4c3nc(N)n3nc(-c5ccco5)nc43)CC2)cc1 [Compound 106, Preladenant]
1.3 | 11.7 | – | – | – | N=C(N)c1ccc2cc(OC(=O)c3ccc(N=C(N)N)cc3)ccc2c1 [Nafamostat Mesylate]
1.3 | 8.8 | – | – | – | CNCc1ccc(C)c(NC(=O)c2ccc(Nc3nc(-c4ccccc4)c4ccccc4n3)cc2)c1 [Compound 57, Bms - 833923]
0.7 | 11.8 | – | – | – | Cl.Cl.Cl.O[C@@H](COc1cccc2ncccc12)CN1CCN([C@@H]2c3ccccc3[C@@H]3[C@H](c4ccccc42)C3(F)F)CC1 [Zosuquidar (LY335979) 3HCl]
1.3 | 11.7 | – | – | – | O=C(Nc1cccc(C2=NCCN2)c1)Nc1cccc(C2=NCCN2)c1 [Imidocarb dipropionate]

Source: patent US20230414575A1, “MK2 ACTIVATING COMPOUNDS FOR USE IN TREATING VASCULAR LEAK AND ENDOTHELIAL BARRIER DISORDERS” (Akttyva Therapeutics, Inc., priority 2020, published 2023)
